Data as given in US6348445B1, “Biologically active peptides with reduced toxicity in animals and a method for preparing same” (priority 1992, dated 2002).
Converted amounts (≈) assume the structure as drawn. Values belong to the molecule of their own block, whether it stands above or below them. Where a SMILES comes first, the peptide text is derived from it. Where no end group is shown, it is not given here. The star is where a group is joined. Octanoyl = CCCCCCCC(=O)*

Columns and labels:
[1] = test system: S.aureus strain ATCC 25923; assay: Minimal Inhibitory Concentration, microtiter broth dilution; format: cell-based; settings: Mueller Hinton broth, 16-20 hours at 37° C.
Source text: Table I, which follows, indicates the Minimal Inhibitory Concentration (MIC) in […] of various peptides against S.aureus strain ATCC 25923(S), P. aeruginosa strain ATCC 27853(P), E. coli ATCC strain 25922(E), and C. 4albicans (CA). […] The peptides are unsubstituted at the N-terminal; substituted with an acetyl group at the N-terminal, as indicated by Ac-; substituted with an octanoyl group at the N-terminal, as indicated by Oct-; substituted with spinogosine, as indicated by Sph-; substituted with a succinyl group, as indicated by Suc-; substituted with a hexanoyl group, as indicated by Hex-; substituted with a heptanoyl group, as indicated by Hep-; substituted with a valeryl group, as indicated by Val-; substituted with a myristryl group, as indicated by Myr-; or substituted with an ibuprofyl group, as indicated by Ibu-;
The procedure for the anti-bacterial assay is based upon the guidelines of the National Committee for Clinical Laboratory Standards, Document M7-T2, Volume 8, No. 8, 1988, which document is entirely incorporated herein by reference.
Stock solutions of peptides, with and without the appropriate substitutions, were prepared at a concentration of 512 μg/ml in sterile deionized distilled water and stored at −70° C.
The stock peptide solution was diluted in serial dilutions (1:2) down the wells of a microtiter plate so that the final concentrations of peptides in the wells were 0.25, 0.50, 1, 2, 4, 8, 16, 32, 64, 128 and 256 μg/ml. 1-5×10^5 CFUs/ml of either S. aureus ATCC 25923, E. coli ATCC 25922, P. aeruginosa ATCC 27853, or C. albicans, were added to the wells in full strength Mueller Hinton broth (BBL 11443) from a mid-log culture. The inoculum was standardized spectrophotometrically at 600 nm and was verified by colony counts. The plates were incubated for 16-20 hours at 37° C., and the minimal inhibitory concentration (MIC) for each peptide was determined. Minimal inhibitory concentration is defined as the lowest concentration of peptide which produces a clear well in the microtiter plate. The minimal inhibitory concentration of each of the peptides with and/or without the appropriate substitutions is given in Table I below.

[2] = test system: P. aeruginosa strain ATCC 27853; format: cell-based; settings: for Minimal Inhibitory Concentration P: P. aeruginosa strain ATCC 27853, Table I
Outline: (§1)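 Peptides serially diluted 1:2 to final 0.25–256 μg/ml in Mueller Hinton broth, inoculated with 1-5×10^5 CFUs/ml from mid-log culture. Incubated 16-20 hours at 37° C. MIC = lowest peptide concentration giving a clear well.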

[3] = test system: E. coli ATCC strain 25922; assay: Minimal Inhibitory Concentration, microtiter broth dilution; format: cell-based; settings: for Minimal Inhibitory Concentration E: E. coli ATCC strain 25922, Table I; for MIC E. coli ATCC 25922: ATCC strain 25922
Outline: as §1

C. albicans = format: cell-based; settings: C. albicans; Table I
Outline: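 Peptides serially diluted 1:2 to final 0.25–256 μg/ml; inoculum 1-5×10^5 CFU/ml from mid-log culture in full-strength Mueller Hinton broth. Incubated 16-20 h at 37° C. MIC taken as lowest peptide concentration giving a clear well.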

S. mutans = assay: anaerobic anti-microbial susceptibility test (MIC); format: cell-based; parameters: unit not given here; settings: 24-48 hours
A. viscosus = assay: anaerobic anti-microbial susceptibility test (MIC); format: cell-based; settings: 24-48 hours
P. gingivalis = settings: anaerobic, 24-48 hours
[4] = MTD of repeat-dose intraperitoneal administration; format: in vivo, SCID mice; settings: 135 mg/kg/week, three injections per week i.p.
Description: Determinations of a maximal tolerated dose (MTD) of repeat-dose intraperitoneal (i.p.) administration of MSI-344 or MSI-1857 in 60 SCID mice were done. Mice were injected with various doses of MSI-344 or MSI-1857 twice or thrice per week. Survival and body weight were monitored. On a twice per week dosing schedule, the MTDs of MSI-344 and MSI-1857 were 12 and 134 mg/kg/week, respectively. […] On a thrice per week dosing schedule, no deaths occurred in any groups, with high dose groups of MSI-344 and MSI-1857 receiving 90 mg/kg/week and […], respectively. A transient body weight loss was seen after initial dosing in most MSI-344 and MSI-1857 groups. No body weight loss greater than 6% occurred in any group on the thrice per week dosing schedule.
To determine estimates of MTDs of MSI-344 and MSI-1857 when administered intraperitoneally on repeat-dose regimens in SCID mice. The selection of SCID mice was based on the future plans of using this strain as host for xenograft human tumor efficacy models, and a pre-requisite for determining MTD for chronic administration that may be used during the efficacy model.
SCID mice are immunocompromised and therefore they were housed and handled in sterile environments. They had access to sterile water and sterilized chow ad lib.
A 1 mg/mL solution of MSI-344 was made in saline (0.9% sodium chloride injection USP, Abbott, North Chicago, Ill.) corrected for peptide content. Solutions of MSI-344 at concentrations of 0.6, 0.3, and 0.1 mg/mL were made by diluting the 1 mg/mL solution using saline as diluent. A 10 mg/mL solution of MSI-1857 was made in saline.
Solutions of MSI-1857 at concentrations of 6.7, 3.3, 3, 2, and 1 mg/mL were made by diluting the 10 mg/mL solution using saline as diluent.
Mice (four mice per dose group) were intraperitoneally administered MSI-344 or MSI-1857 using an injection volume of 10 mL/kg of the appropriate solution concentration on a twice per week (Groups 1 through 7) or thrice per week (Groups 8 through 15) dosing schedule every week for 20 weeks. Survival was monitored daily and body weights were recorded three times per week An interim analysis was performed at 3 weeks and the results of this interim analysis is presented in the present report.

S. aureus ATCC 29213 = format: cell-based; settings: ATCC 29213

Molecule: H-KIAKKIAKIAKKIAKIAKKIA-OH [(SEQ ID NO: 86)-OH, (Lys Ile Ala Lys Lys Ile Ala)3]
- Minimal Inhibitory Concentration S [1]: 128 µg/mL
- Minimal Inhibitory Concentration P [2]: 32 µg/mL
- Minimal Inhibitory Concentration E [3]: 2 µg/mL
- Minimal Inhibitory Concentration CA (C. albicans): 256 µg/mL
- MIC S. mutans (S. mutans): 16
- MIC A. viscos (A. viscosus): 32 μl/ml
- MIC P. gingivalis (strain) 9-14K-1 (P. gingivalis): 16 μl/ml
- MIC P. gingivalis (strain) 381 (P. gingivalis): 16 μl/ml
- MIC P. gingivalis (strain) 450 (P. gingivalis): 4 μl/ml
- MIC P. gingivalis (strain) A7A1-28 (P. gingivalis): 4 μl/ml
- MIC P. gingivalis (strain) FAY-19M-1 (P. gingivalis): 8 μl/ml

Molecule: CCCCCCCC(=O)N[C@@H](CCCCN)C(=O)N[C@@H](CC(C)C)C(=O)N[C@@H](C)C(=O)N[C@@H](CCCCN)C(=O)N[C@@H](CC(C)C)C(=O)N[C@@H](C)C(=O)N[C@@H](CCCCN)C(=O)N[C@@H](CCCCN)C(=O)N[C@@H](CC(C)C)C(=O)N[C@@H](C)C(N)=O [Oct-(SEQ ID NO: 124)-NH2] (Octanoyl-KLAKLAKKLA-NH2)
- Minimal Inhibitory Concentration S [1]: 128 µg/mL
- Minimal Inhibitory Concentration P [2]: 64 µg/mL
- Minimal Inhibitory Concentration E [3]: 256 µg/mL
- Minimal Inhibitory Concentration CA (C. albicans): 128 µg/mL

Molecule: O=S([O-])S(=O)(=O)[O-].[Na+].[Na+] [Sodium metabisulfite, reference compound]
- lethality [4]: no lethality

Molecule: CCCCCCCC(=O)N[C@@H](CCCCN)C(=O)N[C@@H](CCCCN)C(=O)N[C@@H](CC(C)C)C(=O)N[C@@H](C)C(=O)N[C@@H](CCCCN)C(=O)N[C@@H](CC(C)C)C(=O)N[C@@H](C)C(=O)N[C@@H](CCCCN)C(=O)N[C@@H](CCCCN)C(=O)N[C@@H](CC(C)C)C(=O)N[C@@H](C)C(N)=O [Oct-(SEQ ID NO: 123)-NH2] (Octanoyl-KKLAKLAKKLA-NH2)
- Minimal Inhibitory Concentration S [1]: 32 µg/mL
- Minimal Inhibitory Concentration P [2]: 16 µg/mL
- Minimal Inhibitory Concentration E [3]: 32 µg/mL
- Minimal Inhibitory Concentration CA (C. albicans): 32 µg/mL

- MIC P. aeruginosa ATCC 27853 [2]: 64 µg/mL (≈ 18.6 µM)
- MIC E. coli ATCC 25922 [3]: 128 µg/mL (≈ 37.3 µM)
- MIC S. aureus ATCC 29213 (S. aureus ATCC 29213): 64 µg/mL (≈ 18.6 µM)
Molecule: CC[C@H](C)[C@H](NC(=O)CNCS(=O)(=O)O)C(=O)NCC(=O)N[C@@H](CCCCNCS(=O)(=O)O)C(=O)N[C@@H](Cc1ccccc1)C(=O)N[C@@H](CC(C)C)C(=O)N[C@@H](CCCCNCS(=O)(=O)O)C(=O)N[C@@H](CCCCNCS(=O)(=O)O)C(=O)N[C@@H](C)C(=O)N[C@@H](CCCCNCS(=O)(=O)O)C(=O)N[C@@H](CCCCNCS(=O)(=O)O)C(=O)N[C@@H](Cc1ccccc1)C(=O)NCC(=O)N[C@@H](CCCCNCS(=O)(=O)O)C(=O)N[C@@H](C)C(=O)N[C@@H](Cc1ccccc1)C(=O)N[C@H](C(=O)N[C@@H](CCCCNCS(=O)(=O)O)C(=O)N[C@H](C(=O)N[C@@H](CCSC)C(=O)N[C@@H](CCCCNCS(=O)(=O)O)C(=O)N[C@@H](CCCCNCS(=O)(=O)O)C(N)=O)[C@@H](C)CC)C(C)C

Molecule: CCCCCCCC(=O)N[C@@H](CCCCN)C(=O)N[C@H](C(=O)N[C@@H](C)C(=O)N[C@@H](CCCCN)C(=O)N[C@@H](CCCCN)C(=O)N[C@H](C(=O)N[C@@H](C)C(=O)N[C@@H](CCCCN)C(=O)N[C@H](C(=O)N[C@@H](C)C(=O)N[C@@H](CCCCN)C(=O)N[C@@H](CCCCN)C(=O)N[C@H](C(=O)N[C@@H](C)C(=O)N[C@@H](CCCCN)C(=O)N[C@H](C(=O)N[C@@H](C)C(=O)N[C@@H](CCCCN)C(=O)N[C@@H](CCCCN)C(=O)N[C@H](C(=O)N[C@@H](C)C(=O)O)[C@@H](C)CC)[C@@H](C)CC)[C@@H](C)CC)[C@@H](C)CC)[C@@H](C)CC)[C@@H](C)CC [Oct-(SEQ ID NO: 86)-OH] (Octanoyl-KIAKKIAKIAKKIAKIAKKIA-OH)
- Minimal Inhibitory Concentration S [1]: 8 µg/mL
- Minimal Inhibitory Concentration P [2]: 4 µg/mL
- Minimal Inhibitory Concentration E [3]: 2 µg/mL
- Minimal Inhibitory Concentration CA (C. albicans): 128 µg/mL
- MIC S. mutans (S. mutans): 16
- MIC A. viscos (A. viscosus): 32 μl/ml
- MIC P. gingivalis (strain) 9-14K-1 (P. gingivalis): 1 μl/ml
- MIC P. gingivalis (strain) 381 (P. gingivalis): 1 μl/ml
- MIC P. gingivalis (strain) 450 (P. gingivalis): 1 μl/ml
- MIC P. gingivalis (strain) A7A1-28 (P. gingivalis): 1 μl/ml
- MIC P. gingivalis (strain) FAY-19M-1 (P. gingivalis): 1 μl/ml

- MIC P. aeruginosa ATCC 27853 [2]: 32 µg/mL
- MIC E. coli ATCC 25922 [3]: 16 µg/mL
- MIC S. aureus ATCC 29213 (S. aureus ATCC 29213): 16 µg/mL
Molecule: GIGKFLKKAKKFGKAFVKIMKK-NH2 [SEQ ID NO: 155-NH2]

Molecule: CCCCCCCC(=O)N[C@@H](CCCCN)C(=O)N[C@H](C(=O)N[C@@H](C)C(=O)N[C@@H](CCCCN)C(=O)N[C@@H](CCCCN)C(=O)N[C@H](C(=O)N[C@@H](C)C(=O)N[C@@H](CCCCN)C(=O)N[C@H](C(=O)N[C@@H](C)C(=O)N[C@@H](CCCCN)C(=O)N[C@@H](CCCCN)C(=O)N[C@H](C(=O)N[C@@H](C)C(N)=O)[C@@H](C)CC)[C@@H](C)CC)[C@@H](C)CC)[C@@H](C)CC [Oct-(SEQ ID NO: 153)-NH2] (Octanoyl-KIAKKIAKIAKKIA-NH2)
- Minimal Inhibitory Concentration S [1]: 8 µg/mL
- Minimal Inhibitory Concentration P [2]: 8 µg/mL
- Minimal Inhibitory Concentration E [3]: 32 µg/mL
- Minimal Inhibitory Concentration CA (C. albicans): 64 µg/mL
